The results in this text go back to PubChem BioAssay (NCI).

The structures appear in SMILES notation.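 Exposure lasted 48 hours, with cells grown in 96-well plates and compounds tested at five concentrations. TGI marks complete inhibition of growth.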

What all share (test): NCI anticancer screen, dose series, 48 h
Experiment [1] relates to NCI-H226 lung.
The test system of experiment [2] is EKVX NSCLC.
Experiment [3] concerns OVCAR-8 ovarian.
The subject of experiment [4] is UACC-62 melanoma.
The test system of experiment [5] is HOP-92 NSCLC.
For experiment [6], the system named is NCI-H23 lung.
Experiment [7] has as its system SK-MEL-5 melanoma.
For experiment [8], the system named is IGROV1 ovarian.
Experiment [9] concerns SNB-19 CNS.
The subject of experiment [10] is RPMI-8226 leukemia.
In experiment [11] the test system is KM12 colon.
The subject of experiment [12] is 786-0 renal.
The subject of experiment [13] is NCI-H460 lung.
In experiment [14] the test system is MDA-MB-231 breast.
In experiment [15] the test system is HOP-62 NSCLC.
Experiment [16] deals with SK-OV-3 ovarian.

As for `COc1ccc(C2(CC(C)C)CCNC2)cc1OC` (centres undefined), the TGI in experiment [1], in experiment [2], in experiment [3], in experiment [4], in experiment [5] and in [6] was more than 100 µM throughout. Moreover, the TGI in [7], in [8], in [9], in experiment [10], in experiment [11] and in experiment [12] was more than 100 µM each time. For the same molecule, the TGI in experiment [13], in experiment [14], in experiment [15] and in experiment [16] was more than 100 µM each time.

With `CCS1=C2C(=O)CC(C)(C)CC2=Nc2ccccc21` (centres undefined), the TGI in experiment [1], in experiment [2], in experiment [3], in experiment [4], in experiment [5] and in experiment [6] was more than 100 µM throughout. The TGI in experiment [7], in [8], in experiment [9], in experiment [10], in experiment [11] and in experiment [12] was more than 100 µM each time. Moreover, the TGI in experiment [13], in experiment [14], in experiment [15] and in [16] was more than 100 µM each time.

Take `COc1ccc2c(=O)c3ccoc3[nH]c2c1`: the TGI in experiment [1], in [2], in experiment [3], in experiment [4], in experiment [5] and in [6] was more than 100 µM throughout. For the same molecule, the TGI in experiment [7], in [8], in [9], in experiment [10], in experiment [11] and in experiment [12] was more than 100 µM throughout. The TGI in experiment [13], in experiment [14], in experiment [15] and in experiment [16] was more than 100 µM each time.

`N#CC(O)CCOCc1ccccc1` (centres undefined): the TGI in experiment [1], in [2], in experiment [3], in experiment [4], in [5] and in [6] was more than 100 µM each time. Further, the TGI in experiment [7], in experiment [8], in [9], in experiment [10], in experiment [11] and in experiment [12] was more than 100 µM throughout. Further, the TGI in [13], in experiment [14], in experiment [15] and in experiment [16] was more than 100 µM in each case.

Take `O=C(NC(CS)C(=O)O)c1c2ccccc2nc2ccccc12` (centres undefined): the TGI in experiment [1] was more than 100 µM; in [2] it was more than 100 µM; in [3], more than 100 µM; in [4], more than 100 µM; in [5], more than 100 µM; in [6], 68.6 µM. Further, the TGI in [7] is 12.8 µM; in experiment [8] it was more than 100 µM; in experiment [9] it was more than 100 µM; in experiment [10], more than 100 µM; in [11], more than 100 µM; in [12], more than 100 µM. For the same molecule, the TGI in [13], in [14], in experiment [15] and in experiment [16] was more than 100 µM throughout.

`N#Cc1ccc(C2ON=C(c3ccccc3)N2C23CC4CC(CC(C4)C2)C3)cc1` (centres undefined): the TGI in experiment [1], in [2], in experiment [3], in [4], in [5] and in [6] was more than 10 µM in each case. Besides, the TGI in experiment [7], in [8], in experiment [9], in [10], in [11] and in experiment [12] was more than 10 µM throughout. Also, the TGI in experiment [13], in experiment [14], in experiment [15] and in experiment [16] was more than 10 µM throughout.

As to `NC(=O)N/N=C\CC(O)(C(F)(F)Cl)C(F)(F)Cl`, the TGI in experiment [1], in [2], in experiment [3], in [4], in experiment [5] and in [6] was more than 10 µM throughout. Further, the TGI in experiment [7], in experiment [8], in experiment [9], in experiment [10], in experiment [11] and in [12] was more than 10 µM in each case. Moreover, the TGI in experiment [13], in experiment [14], in experiment [15] and in experiment [16] was more than 10 µM throughout.

In the case of `C/C(=C/CC[C@](C)(OC1OC(CO)C(O)C(O)C1O)[C@H]1CC[C@]2(C)[C@@H]1CC[C@@H]1[C@@]3(C)CC[C@H](O)C(C)(C)[C@@H]3C[C@H](O)[C@]12CO)CO` (some centres undefined), the TGI in experiment [1], in experiment [2], in [3], in experiment [4], in [5] and in experiment [6] was more than 100 µM in each case. Also, the TGI in [7], in experiment [8], in experiment [9], in [10], in experiment [11] and in [12] was more than 100 µM in each case. For the same molecule, the TGI in [13], in experiment [14], in experiment [15] and in [16] was more than 100 µM in each case.

Consider `C/C(O)=C(/C=N/C(=S)Nc1ccccc1)C(=O)Nc1ccccc1C`, for which the TGI in experiment [1], in experiment [2], in experiment [3], in experiment [4], in experiment [5] and in experiment [6] was more than 100 µM each time. In addition, the TGI in experiment [7], in experiment [8], in experiment [9], in experiment [10], in experiment [11] and in [12] was more than 100 µM in each case. In addition, the TGI in [13], in experiment [14], in experiment [15] and in experiment [16] was more than 100 µM throughout.
